Data: patent US4238472A, “Radioimmunoassay for chlorinated dibenzo-p-dioxins” (priority 1978, dated 1980)

Tests used:
antiserum F-12 = assay: Specificity / cross reactivity of the radioimmunoassay, antiserum F-12; assay type: binding, rabbit
Text: (§1) Since TCDD itself has no chemically reactive functional groups, a derivative was synthesized that retained most of the structural features of TCDD but with the addition of a reactive site. This derivative was coupled to an immunogenic protein carrier, such as bovine serum albumin, rabbit serum albumin, etc., so that animals would respond to it by producing an antiserum containing antibodies. A second compound was synthesized, still structurally similar to TCDD so that it would bind to the antibodies, but capable of being labeled with ^125 I for detectability at the picogram level. An amount of antiserum capable of binding about 20 pg of ^125 I-labeled dioxin derivative (hapten) is preincubated with the detergent emulsion of the sample extract (possibly containing TCDD). Then the mixture is incubated with the ^125 I-labeled derivative long enough for equilibrium binding to occur and form the hapten-antibody complex. A second antibody, namely, goat antibodies against rabbit gamma-globulin (i.e., goat anti-rabbit γ-globulin) are then added to precipitate the antibody ^125 I-labeled dioxin complex, and the amount of ^125 I in the precipitate is determined. The extent to which preincubation with the test material inhibits or decreases the amount of ^125 I precipitated relative to the amount precipitated in the absence of test material is a measure of the amount of chlorodibenzodioxin in the test sample.
(§2) Radioimmunoassay of small molecules requires some means of separating free hapten from antibody-bound hapten. The procedure used in the present invention, chosen because of its compatibility with detergent-solubilized hapten, involved precipitating the antibody-hapten complex with a second antibody, namely, goat antibodies against rabbit gamma-globulin. In this assay chlorodibenzodioxin from the environmental sample completes with the ^125 I-labeled hapten for binding to the antibody. Thus, the decrease in precipitation of radioactivity is a measure of the amount of (unlabeled) hapten in the test sample.
(§3) The assay buffer (hereinafter referred to as "PBS") contained, per liter, 20 mmol of potassium phosphate, 140 mmol of NaCl, and 200 mg of sodium azide. The pH was adjusted to 7.3 with NaOH. Antiserum was diluted with PBS also containing 0.1% bovine gamma globulin and 0.02% rabbit gamma globulin (w/v). Each assay tube from procedure G above received 0.2 ml of PBS, after which the tubes were held in the sonicator for 40 minutes and then cooled to room temperature. Appropriately diluted antiserum or, as control, antiserum diluant was added (0.2 ml) and, after vortex-mixing, the tubes were incubated for 40 minutes at 37°. 14000 disintegrations per minute (hereafter referred to as "DPM") or 7000 counts per minute (hereinafter referred to as "CPM", which equals DPM×counting efficiency) of [^125 I]-iodovaleramide derivative of trichlorodibenzo-p-dioxin in PBS containing 1% "Cutscum" were then added to each tube (approximately 10 μl), vortex mixed, and the tubes incubated for 1 hour at 37° followed by an additional 65 hours of incubation at 4°. Each tube next received 1.24 units of goat anti-rabbit gamma globulin in 0.2 ml of PBS containing 0.05 mM ethylenediamine tetracetic acid (hereinafter referred to as "EDTA"), was vortex mixed, and incubated for 5 hours at 4°. The tubes were centrifuged at 500×g for 20 minutes at 4°. The supernates were poured off and the tubes allowed to drain into Whatman #3 MM paper for 10 minutes. The precipitate or pellets obtained were then radioassayed for ^125 I, with 10 minute count cycles.
(§4) Standard curves were prepared using sequential two-fold dilutions of TCDD or other test compounds in benzene and evaporating the solvent as described above. Both control (blank) and TCDD-spiked tissues were extracted and processed as described above to determine general interference and recoveries. All samples were run in triplicate. […]

antiserum GC-5 = assay: Cross reactivity in chlorinated DBD radioimmunoassay, antiserum GC-5; assay type: binding, rabbit
Text: as §1, §2, §3, §4

[1] = Determination of 2,3,7,8-TCDD in monkey tissue by radioimmunoassay; assay type: in vivo, Rhesus Monkeys (Macaca muletta); conditions: antiserum F12, "Cutscum"
Experimental: Blend 10 g of tissue in 200 ml of chloroform:methanol, 2:1 (v/v). Filter with suction through glass fiber filter paper (Reeve Angel grade 934AH or equivalent). Return the filter paper and cake to the blender jar and blend with 100 ml of chloroform:methanol, 2:1 (v/v). Filter as above ad combine filtrates. Add 52 ml of 1.2% aqueous KCl, mix well, let phases clear, and collect the lower phase in a 500 ml round bottom flask. Evaporate just to dryness at 40° using a rotary evaporator and water aspirator. This is a modification of the method of Folch et al [J.Biol.Chem.,236,497 (1957)].
Grind together 8 g of anhydrous sodium sulfate per gram of adipose, using a mortar and pestle. Extract the resulting powder with chloroform in a Soxhlet extractor, allowing at least 8 cycles.
Leach the lipid residue from 10 g of liver, 100 ml of blood or 1 g of adipose into 15 ml of CCl4. Partition against 15 ml of con.H2 SO4. Centrifuge at 2000 rpm for 30 minutes. Remove as much of the CCl4 layer as possible and record the volume recovered. Pass the CCl4 solution through anhydrous Na2 CO3 in a glass wool-plugged funnel, rinising the Na2 CO3 with 2 ml of fresh CCl4. Concentrate the filtrate just to dryness on a rotary evaporator at 40°. Leach the residue into 1.5 ml of n-hexane:methylene chloride, 97:3 (v/v).
as §3, with “Each tube next received 1.24 units of goat anti-rabbit gamma globulin in 0.2 ml of PBS containing 0.05 mM ethylenediamine tetracetic acid (hereinafter referred to as "EDTA"), was vortex mixed, and incubated for 5 hours at 4°. The tubes were centrifuged at 500×g for 20 minutes at 4°. The supernates were poured off and the tubes allowed to drain into Whatman #3 MM paper for 10 minutes. The precipitate or pellets obtained were then radioassayed for ^125 I, with 10 minute count cycles.” left out
Using spiked, sandy soil samples, the inventors were able to detect 0.7 picomole of 2,3,7,8-TCDD using "Cutsum" and either antiserum. With "Triton X-305" replacing the "Cutscum", as little as 0.08 picomole of 2,3,7,8-TCDDcould be detected. […]

[2] = Determination of 2,3,7,8-TCDD in monkey tissue by gas chromatography with negative ion mass spectrometry; assay type: in vivo, Rhesus Monkeys (Macaca muletta)
Text: (§5) Using spiked, sandy soil samples, the inventors were able to detect 0.7 picomole of 2,3,7,8-TCDD using "Cutsum" and either antiserum. With "Triton X-305" replacing the "Cutscum", as little as 0.08 picomole of 2,3,7,8-TCDDcould be detected. These levels of sensitivity required that a dilution of antiserum (usually about 1:9000) be used that would bind 33% of the ^125 I-labeled hapten. To test the applicability of this assay to tissue samples, the inventors obtained liver and adipose samples from monkeys that had been used in a toxicity study involving 2,3,7,8-TCDD [as described by E. E.McConnell et al in "Toxicity of 2,3,7,8-tetrachlorodibenzo-p-dioxin in Rhesus Monkeys (Macaca muletta) Following a Single Oral Dose", appearing in Toxicol. Appl. Pharmacol. 43/1,175-187(1978)]. Sample size ranged from 3 to 50 mg of tissue for the radioimmunoassay, while 200 mg samples were used for comparison assays by gas chromatography with either negative chemical ionization mass spectrometry [as described by J. R. Hass et al in "Determination of Polychlorinated Dibenzo-p-Dioxins in Biological Samples by Negative Chemical Ionization Mass Spectrometry", appearing in Anal. Chem. 50/11, 1471-1479 (1978)], or an electron capture detector as measuring device.
(§6) ^a Monkeys 373 and 374 were controls and dosed orally with corn oil
alone. Monkeys 380 and 391 were experimental and received a single oral […]

[3] = Determination of 2,3,7,8-TCDD in monkey tissue by gas chromatography with electron capture detector; assay type: in vivo, Rhesus Monkeys (Macaca muletta)
Text: as §5, §6
alone. Monkeys 380 and 391 were experimental and received a single oral
dose of 70 μg/kg or 350 μg/kg TCDD in corn oil, respectively.
GCEC = Gas chromatography with electron capture detector.

guinea pig = conditions: cited from earlier work
[4] = monkey 380, adipose, single oral dose 70 μg/kg
[5] = monkey 380, liver, single oral dose 70 μg/kg
[6] = monkey 391, adipose, single oral dose 350 μg/kg
[7] = monkey 391, liver, single oral dose 350 μg/kg

Structure (SMILES): Clc1cc2c(cc1Cl)Oc1cc(Cl)c(Cl)cc1O2 [2,3,7,8-TCDD, 2,3,7,8-tetrachlorodibenzo-p-dioxin]
- reactivity with F-12 (2,3,7,8-tetrachlorodibenzo-p-dioxin v 2,3,7,8-tetrachlorodibenzofuran) (antiserum F-12): approximately the same reactivity
- Cross Reactivity, Antiserum F-12: 100 × (inhibition of 125I binding by 4 pmole of test compound)/(inhibition by 4 pmole of 2,3,7,8-TCDD) (antiserum F-12; 4 pmole): 100%
- binding by the antibodies in GC-5 (antiserum GC-5): Essentially all of these antibodies (in GC-5) also bind 2,3,7,8-TCDD
- Cross Reactivity, Antiserum GC-5: 100 × (inhibition of 125I binding by 4 pmole of test compound)/(inhibition by 4 pmole of 2,3,7,8-TCDD) (antiserum GC-5; 4 pmole): 100%
- maximum inhibition of binding of 125I-labeled hapten (antiserum GC-5; GC-5 diluted such that 33% of the label was bound in the absence of competitors): up to 97%
- TCDD in tissue, RIA [1, 4]: 41 ppb
- TCDD in tissue, RIA [1, 5]: 20 ppb
- TCDD in tissue, RIA [1, 6]: 1800 ppb
- TCDD in tissue, RIA [1, 7]: 94 ppb
- TCDD in tissue, GM-MS [2, 4]: 28 ppb
- TCDD in tissue, GM-MS [2, 6]: 1740 ppb
- TCDD in tissue, GC-EC [3, 4]: 87 ppb
- TCDD in tissue, GC-EC [3, 5]: 17 ppb
- TCDD in tissue, GC-EC [3, 6]: 1810 ppb
- TCDD in tissue, GC-EC [3, 7]: 30 ppb
- acute oral LD50 (guinea pig): less than 1 microgram per kg
